US20240199647A1, “ANTI-VIRAL COMPOUNDS” (Aligos Therapeutics, Inc., priority 2022, published 2024)
Read-outs that look alike come from different tables or passages of the source.

Key:
SARS-Cov-2 3CLpro = SARS-Cov-2 3CLpro (Severe acute respiratory syndrome coronavirus 2, UniProt P0DTD1); experiment: biochemical; settings: Table A, class symbols, read-out: SARS-Cov-2 (IC50)
[1] = tested on: human beta-coronavirus OC43; experiment: OC43 Coronavirus Assay in HeLa cells (antiviral, cytopathic effect, cell-titer-glo); assay type: cell-based; settings: Betacoronavirus 1, OC43, HeLa, Table B, OC43 coronavirus in HeLa cells, read-out: EC50
[2] = tested on: SARS-CoV-2 B.1.1.7 lineage; experiment: microbe, parasite or virus in culture; assay type: cell-based; settings: Severe acute respiratory syndrome coronavirus 2, Table C, SARS-CoV-2 B.1.1.7 in A549-dual_ACE2_TMPRSS2 cells, read-out: A549-dual_ACE2_TMPRSS2 (EC50)
in vitro = settings: human
[3] = Cytotoxicity in HeLa cells without addition of OC43 virus (in parallel); settings: human, HeLa cells, without OC43 virus

| Structure (SMILES) | IC50 (SARS-Cov-2 3CLpro) [nM] | EC50 ([1]; class symbols) [nM] | EC50 ([2]; class symbols) [nM] | CC50 (in vitro) [nM] | CC50 at 6 days [3] [nM] | EC50 ([1]; cells given as a bound) [nM] | EC50 ([2]; cells given as a bound) [nM] |
| --- | --- | --- | --- | --- | --- | --- | --- |
| COC(=O)N[C@@H](CC1CC1)C(=O)N(C)[C@@H](CC1CC1)C(=O)N1C[C@@]2(C[C@H]1C#N)Oc1ccccc1CNC2=O [Compound 139] | < 20 | < 100 | 100 to 1000 | > 1000 | > 10000 |  |  |
| CN(C(=O)[C@@H](COC(C)(C)C)NC(=O)C(F)(F)F)[C@@H](CC1CC1)C(=O)N1C[C@@]2(C[C@H]1C#N)Oc1cccnc1NC2=O [Compound 156] | < 20 | < 100 | 100 to 1000 | > 1000 | > 10000 |  |  |
| CN(C(=O)[C@H](CC1CC1)NC(=O)C(F)(F)F)[C@@H](CC1CC1)C(=O)N1C[C@@]2(C[C@H]1C#N)Oc1cc(F)ccc1CNC2=O [Compound 142] | < 20 | < 100 | < 100 | > 1000 | > 10000 |  |  |
| CN(C(=O)[C@H](CC1CC1)NC(=O)C(F)(F)F)[C@@H](CC(C)(C)F)C(=O)N1C[C@@]2(CC1C#N)Oc1cc(F)cc(F)c1NC2=O (stereo partly drawn) [Compound 54] | < 20 | < 100 | 100 to 1000 | > 1000 | > 10000 |  |  |
| CN(C(=O)[C@H](CC1CC1)NC(=O)C(F)(F)F)[C@@H](CC1CC1)C(=O)N1C[C@@]2(C[C@H]1C#N)Oc1ccc(F)c(F)c1NC2=O [Compound 52] | < 20 | < 100 | < 100 | > 1000 | > 10000 |  |  |
| CN(C(=O)[C@@H](CC1CC1)n1cc(C2CC2)nn1)[C@@H](CC1CC1)C(=O)N1C[C@@]2(C[C@H]1C#N)Oc1cc(F)cc(F)c1NC2=O [Compound 107, (R)—N—((S)-1-((2R,5'S)-5′-cyano-5,7-difluoro-3-oxo-3,4-dihydrospiro[benzo[b][1,4]oxazine-2,3′-pyrrolidin]-1′-yl)-3-cyclopropyl-1-oxopropan-2-yl)-3-cyclopropyl-2-(4-cyclopropyl-1H-1,2,3-triazol-1-yl)-N-methylpropanamide] | < 20 | 1000 to 10000 | 100 to 1000 | > 1000 | > 10000 |  |  |
| C[C@@H](NC(=O)C(F)(F)F)C(=O)N(C)[C@@H](CC1CC1)C(=O)N1C[C@@]2(C[C@H]1C#N)Oc1cc(F)cc(F)c1NC2=O [Compound 83] | 20 to 200 | 100 to 1000 | < 100 | > 1000 | > 10000 |  |  |
| CN(C(=O)[C@H](CC1CC1)NC(=O)C1(F)CC1)[C@@H](CC1CC1)C(=O)N1C[C@@]2(C[C@H]1C#N)Oc1ncccc1NC2=O [Compound 185] | < 20 | < 100 | 100 to 1000 | > 1000 | > 10000 |  |  |
| CC(C)C[C@@H](C(=O)N1C[C@@]2(C[C@H]1C#N)CC1(CCCC1)NC2=O)N(C)C(=O)[C@H](C)NC(=O)C(F)(F)F [Compound 19] | 20 to 200 | 100 to 1000 | 100 to 1000 | > 1000 | > 10000 |  |  |
| CC(C)C[C@@H](C(=O)N1C[C@]2(CCC3(CC3)NC2=O)C[C@H]1C#N)N(C)C(=O)[C@H](C)NC(=O)C(F)(F)F [Compound 20] | 20 to 200 | 1000 to 10000 | 100 to 1000 | > 1000 | > 10000 |  |  |
| CC(C)C[C@@H](C(=O)N1C[C@]2(C[C@H]1C#N)C(=O)NCc1nccn12)N(C)C(=O)[C@H](C)NC(=O)C(F)(F)F [Example 46, (S)—N—((S)-1-((5R,5'S)-5′-cyano-6-oxo-7,8-dihydro-6H-spiro[imidazo[1,2-a]pyrazine-5,3′-pyrrolidin]-1′-yl)-4-methyl-1-oxopentan-2-yl)-N-methyl-2-(2,2,2-trifluoroacetamido)propanamide] | 20 to 200 |  |  | > 1000 | > 10000 | > 10000 | > 1000 |
| CN(C(=O)[C@H](CC1CC1)NC(=O)C(F)(F)F)[C@@H](CC1CC1)C(=O)N1C[C@@]2(C[C@H]1C#N)Oc1cnccc1NC2=O [Compound 73] | 20 to 200 | 100 to 1000 | 100 to 1000 | > 1000 | > 10000 |  |  |
| C[C@H](NC(=O)C(F)(F)F)C(=O)N(C)[C@@H](CC1CC1)C(=O)N1C[C@@]2(C[C@H]1C#N)Oc1ncccc1NC2=O [Compound 209] | < 20 | < 100 | 100 to 1000 | > 1000 | > 10000 |  |  |
| CN(C(=O)C1(NC(=O)C(F)(F)F)CCCCC1)[C@@H](CC1CC1)C(=O)N1C[C@@]2(C[C@H]1C#N)Oc1cccnc1NC2=O [Compound 173] | 200 to 2000 | 1000 to 10000 |  | > 1000 | > 10000 |  | > 1000 |
| CN(C(=O)[C@H](CC(C)(C)C)n1cc(C2CC2)nn1)[C@@H](CC1CC1)C(=O)N1C[C@@]2(C[C@H]1C#N)Oc1cc(F)cc(F)c1NC2=O [Compound 150] | < 20 | < 100 | < 100 | > 1000 | > 10000 |  |  |
| COC(=O)N[C@@H](CC1CC1)C(=O)N(C)[C@@H](CC1CC1)C(=O)N1C[C@@]2(C[C@H]1C#N)Oc1ncccc1NC2=O [Compound 214] | < 20 | < 100 | 100 to 1000 | > 1000 | > 10000 |  |  |
| COCC[C@H](NC(=O)C(F)(F)F)C(=O)N(C)[C@@H](CC1CC1)C(=O)N1C[C@@]2(C[C@H]1C#N)Oc1cc(F)cc(F)c1NC2=O [Compound 103] | < 20 | 1000 to 10000 | 100 to 1000 | > 1000 | > 10000 |  |  |
| CN(C(=O)[C@@H](CC1CC1)NC(=O)C(F)(F)F)[C@@H](CC1CC1)C(=O)N1C[C@@]2(C[C@H]1C#N)Oc1cccnc1NC2=O [Compound 172] | < 20 | 100 to 1000 | 100 to 1000 | > 1000 | > 10000 |  |  |
| CN(C(=O)[C@H](CC1CC1)n1cc(C2CC2)nn1)[C@@H](CC1CC1)C(=O)N1C[C@@]2(C[C@H]1C#N)Oc1cc(F)cc(F)c1NC2=O [Compound 108, (S)—N—((S)-1-((2R,5'S)-5′-cyano-5,7-difluoro-3-oxo-3,4-dihydrospiro[benzo[b][1,4]oxazine-2,3′-pyrrolidin]-1′-yl)-3-cyclopropyl-1-oxopropan-2-yl)-3-cyclopropyl-2-(4-cyclopropyl-1H-1,2,3-triazol-1-yl)-N-methylpropanamide] | < 20 | 100 to 1000 | < 100 | > 1000 | > 10000 |  |  |
| CC(C)C[C@@H](C(=O)N1C[C@@]2(C[C@H]1C#N)N=C(c1ccccc1)NC2=O)N(C)C(=O)c1cc2c(F)cc(F)cc2[nH]1 [Example 6, N-[(2S)-1-[(5R,8S)-8-cyano-4-oxo-2-phenyl-1,3,7-triazaspiro[4.4]non-1-en-7-yl]-4-methyl-1-oxopentan-2-yl]-4,6-difluoro-N-methyl-1H-indole-2-carboxamide] | < 20 | 100 to 1000 | 100 to 1000 | > 1000 | > 10000 |  |  |
| C[C@H](NC(=O)C(F)(F)F)C(=O)N(C)[C@@H](CC1CC1)C(=O)N1C[C@@]2(C[C@H]1C#N)Oc1cc(F)cnc1NC2=O [Compound 144] | < 20 | < 100 | 100 to 1000 | > 1000 | > 10000 |  |  |
| CN1C(=O)[C@]2(C[C@@H](C#N)N(C(=O)[C@H](CC3CC3)N(C)C(=O)[C@H](CC3CC3)NC(=O)C(F)(F)F)C2)Oc2cc(F)cc(F)c21 [Compound 93] | < 20 | < 100 | < 100 | > 1000 | > 10000 |  |  |
| Cc1ccc2c(n1)NC(=O)[C@]1(C[C@@H](C#N)N(C(=O)[C@H](CC3CC3)N(C)C(=O)[C@H](C)NC(=O)C(F)(F)F)C1)O2 [Compound 229, (S)—N—((S)-1-((2R,5'S)-5′-cyano-6-methyl-3-oxo-3,4-dihydrospiro[pyrido[3,2-b][1,4]oxazine-2,3′-pyrrolidin]-1′-yl)-3-cyclopropyl-1-oxopropan-2-yl)-N-methyl-2-(2,2,2-trifluoroacetamido)propanamide] | < 20 | < 100 | 100 to 1000 | > 1000 | > 10000 |  |  |
| CN(C(=O)[C@H](COCc1ccccc1)NC(=O)C(F)(F)F)[C@@H](CC1CC1)C(=O)N1C[C@@]2(C[C@H]1C#N)Oc1cccnc1NC2=O [Compound 191] | < 20 | < 100 | 100 to 1000 | > 1000 | > 10000 |  |  |
| CN(C(=O)[C@H](CC1CC1)NS(=O)(=O)C1(C)CC1)[C@@H](CC1CC1)C(=O)N1C[C@@]2(C[C@H]1C#N)Oc1cccnc1NC2=O [Compound 198] | < 20 | < 100 | 100 to 1000 | > 1000 | > 10000 |  |  |
| CN(C(=O)[C@@H](Cc1ccc(F)cc1)NC(=O)C(F)(F)F)[C@@H](CC1CC1)C(=O)N1C[C@@]2(C[C@H]1C#N)Oc1cc(F)cc(F)c1NC2=O [Compound 90] | < 20 | < 100 | < 100 | > 1000 | > 10000 |  |  |
| CN(C(=O)[C@H](CC1CC1)n1cc(C(F)(F)F)nn1)[C@@H](CC1CC1)C(=O)N1C[C@@]2(C[C@H]1C#N)Oc1cc(F)cc(F)c1NC2=O [Compound 157] | < 20 | < 100 | < 100 | > 1000 | > 10000 |  |  |
